Measured values as given in patent US20250230138A1, “COMPOUNDS HAVING A T-STRUCTURE FORMED BY AT LEAST FOUR CYCLES FOR USE IN THE TREATMENT OF CANCER AND OTHER INDICATIONS” (TheRas, Inc., priority 2022, published 2025).
pIC50: −log10 of the molar value. Like-named read-outs stand apart in the source and are kept apart here.

Assays:
[1] = molecular target: KRAS-PI3Kα interaction (KRAS-Q25A binding to avi-tagged full length PI3Kα) (Homo sapiens (Human), UniProt P42336); assay: Disrupting KRAS-PI3Kα interaction by SPR inhibition assay; details: KRAS-Q25A at 20 μM, 25° C.
Sequence of KRAS-PI3Kα interaction (KRAS-Q25A binding to avi-tagged full length PI3Kα) (P42336 whole entry, looked up, stated change not applied): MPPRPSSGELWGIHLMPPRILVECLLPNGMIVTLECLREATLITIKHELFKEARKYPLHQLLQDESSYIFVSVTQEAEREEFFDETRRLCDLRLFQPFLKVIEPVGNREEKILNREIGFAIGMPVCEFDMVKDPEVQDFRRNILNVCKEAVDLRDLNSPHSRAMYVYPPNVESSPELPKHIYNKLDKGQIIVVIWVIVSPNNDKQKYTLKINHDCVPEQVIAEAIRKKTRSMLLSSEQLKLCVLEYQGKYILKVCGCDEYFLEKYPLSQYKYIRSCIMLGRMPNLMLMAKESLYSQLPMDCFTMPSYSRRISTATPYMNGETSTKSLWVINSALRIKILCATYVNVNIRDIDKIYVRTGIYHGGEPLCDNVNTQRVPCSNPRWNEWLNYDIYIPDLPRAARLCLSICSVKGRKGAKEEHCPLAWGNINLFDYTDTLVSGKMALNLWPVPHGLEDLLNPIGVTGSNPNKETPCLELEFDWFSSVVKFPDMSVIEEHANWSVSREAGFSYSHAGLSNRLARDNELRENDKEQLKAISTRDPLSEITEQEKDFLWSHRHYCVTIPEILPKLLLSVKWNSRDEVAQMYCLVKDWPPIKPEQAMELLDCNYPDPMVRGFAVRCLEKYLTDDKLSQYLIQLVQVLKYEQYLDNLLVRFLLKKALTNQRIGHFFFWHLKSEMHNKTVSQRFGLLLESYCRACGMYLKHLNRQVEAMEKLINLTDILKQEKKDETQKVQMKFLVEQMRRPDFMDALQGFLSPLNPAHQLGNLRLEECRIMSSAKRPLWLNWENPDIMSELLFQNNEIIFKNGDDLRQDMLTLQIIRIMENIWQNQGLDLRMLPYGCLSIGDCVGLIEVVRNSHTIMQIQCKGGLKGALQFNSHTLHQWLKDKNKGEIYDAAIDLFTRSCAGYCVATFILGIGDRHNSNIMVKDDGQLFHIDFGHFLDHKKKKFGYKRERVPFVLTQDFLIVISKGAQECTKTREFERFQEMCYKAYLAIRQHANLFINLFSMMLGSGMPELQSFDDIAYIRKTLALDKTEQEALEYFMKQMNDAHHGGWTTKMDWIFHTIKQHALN
Sequence of KRAS-PI3Kα interaction (KRAS-Q25A binding to avi-tagged full length PI3Kα) (P27986 whole entry partner, looked up): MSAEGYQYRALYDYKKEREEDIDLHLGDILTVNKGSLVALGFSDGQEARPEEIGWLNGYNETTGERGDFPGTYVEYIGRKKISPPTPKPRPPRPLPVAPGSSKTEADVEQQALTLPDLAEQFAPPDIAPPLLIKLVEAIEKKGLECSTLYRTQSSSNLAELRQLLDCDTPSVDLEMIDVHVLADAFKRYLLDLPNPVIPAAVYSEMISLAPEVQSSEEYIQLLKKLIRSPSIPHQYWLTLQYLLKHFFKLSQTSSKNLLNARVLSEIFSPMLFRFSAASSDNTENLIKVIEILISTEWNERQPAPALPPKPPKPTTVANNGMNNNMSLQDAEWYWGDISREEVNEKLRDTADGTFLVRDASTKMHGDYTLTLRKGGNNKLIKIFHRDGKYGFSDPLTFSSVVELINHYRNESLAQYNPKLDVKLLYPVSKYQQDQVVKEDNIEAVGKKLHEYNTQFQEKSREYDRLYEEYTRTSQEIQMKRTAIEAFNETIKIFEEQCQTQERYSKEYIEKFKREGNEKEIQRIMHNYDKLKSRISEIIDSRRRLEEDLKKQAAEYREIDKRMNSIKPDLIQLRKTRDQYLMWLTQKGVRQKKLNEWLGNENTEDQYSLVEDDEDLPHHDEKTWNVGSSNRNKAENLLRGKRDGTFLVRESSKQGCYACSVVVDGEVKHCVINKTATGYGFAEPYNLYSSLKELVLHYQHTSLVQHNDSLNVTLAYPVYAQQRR
Experimental: SPR binding experiments were collected on a Biacore 8K Instrument (Cytiva). Neutravidin (Pierce) was amine coupled to the carboxymethylated dextran surface of a CM5 sensor chip (Cytiva) using standard amine coupling chemistry. The CM5 chip surface was first activated with 0.1 M N-hydroxy succinimide and 0.4 M N-ethyl-N′-(3-dimethyl aminopropyl) carbodiimide at a flow rate of 20 μL/min using 20 mM HEPES pH 7.4, 150 mM NaCl as the running buffer. Next, neutravidin was diluted to 20 μg/mL in 10 mM sodium acetate (pH 4.5) and injected on all flow cells until a density of approximately 10,000 response units (RU) was immobilized. Activated amine groups were quenched with an injection of 1 M ethanolamine (pH 8.0). 300-500 RU of avi-tagged full length PI3Kα was captured on all flow cells in 20 mM HEPES pH 7.4, 150 mM NaCl, 5 mM MgCl2, 1 mM TCEP, 0.05% tween 20, 5% DMSO buffer. KRAS-Q25A at 20 μM was mixed with 8 concentrations of compound (50 nM-100 μM) and injected over the full-length PI3Kα at 30 μL/min and 25° C. Steady-state levels of KRAS binding were recorded and fit with a 4-parameter inhibition model to determine the IC50 values.

[2] = test system: pAKT in BT474 cells; assay: Cell-based pAKT HTRF assay in BT474 cells; details: BT474 cells, 4 hr incubation, read-out: pAKT inhibition IC50 in BT474 cells
In short: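 9-pt curve, top 3 μM, 3-fold steps, 0.25% DMSO; 4 hr compound exposure. Lysis, then HTRF with d2/Eu Cryptate antibody pair, 4–24 h RT. Ex 320 nm, Em 615 nm.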

[3] = molecular target: Cys242 in human PIK3CA (157-299) (Homo sapiens (Human), UniProt P42336); assay: Covalent modification assay using MALDI-TOF MS; assay type: biochemical; details: 4 h reaction time point
Sequence of Cys242 in human PIK3CA (157-299) (P42336 157-299): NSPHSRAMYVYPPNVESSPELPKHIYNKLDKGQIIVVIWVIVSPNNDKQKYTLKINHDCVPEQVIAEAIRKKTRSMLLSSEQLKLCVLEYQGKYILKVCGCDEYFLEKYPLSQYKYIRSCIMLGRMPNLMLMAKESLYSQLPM
In short: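 PIK3CA (157-299), 3.33 or 1 μM in 20 mM HEPES, 150 mM NaCl, 2 mM MgCl2, pH 7.3, was incubated with compound at room temperature in the dark for 15 min, 30 min, 2 h or 4 h. Linear MALDI-TOF read-out; % modification = adduct peak height over summed heights of all protein species.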

[4] = 3.33 μM protein target, 1:7.5 protein to compound ratio (compounds 1-852)
[5] = 1 μM protein target, 1:5 protein to compound ratio (compounds 853-1279)

C=CC(=O)N1CCC(n2cc(-c3nc(-c4cnn(C)c4)c4ccsc4c3-c3ccc(F)cc3OCCOC)cn2)CC1 [compound 49]
pIC50 [1]: < 4.60 | pIC50 ([2]; Compounds 10-999): 6.00 to 7.00 | % of modification [3, 4]: A (percent of modification of PIK3CA protein ≥75%)

COCCOc1cc(F)ccc1-c1c(-c2ccc3cc[nH]c3c2)nc(-c2ccc3c(c2)CCNC3)c2ccsc12 [compound 45]
pIC50 [1]: 4.60 to 5.30

C=CC(=O)NC1CC(n2cc(-c3nc(-c4ccc5c(c4)CCNC5)c4ccsc4c3-c3ccc(F)cc3OCCOC)cn2)C1 (centres unmarked) [compound 60]
pIC50 [1]: 4.60 to 5.30 | pIC50 ([2]; Compounds 10-999): 6.00 to 7.00 | % of modification [3, 4]: A (percent of modification of PIK3CA protein ≥75%)

C=CC(=O)N1CCC(n2cc(-c3nc(-c4ccc5c(c4)CCNC5)c4ccsc4c3-c3ccc(F)cc3OCCOC)cn2)C1 (centres unmarked) [compound 28]
pIC50 [1]: 4.60 to 5.30 | pIC50 ([2]; Compounds 10-999): > 7.00 | % of modification [3, 4]: A (percent of modification of PIK3CA protein ≥75%)

C=CC(=O)N1CC[C@H](n2cc(-c3nc(-c4cnn(C)c4)c4ccsc4c3-c3ccc(F)cc3OCCOC)cn2)C1 [compound 53]
pIC50 [1]: 4.60 to 5.30 | pIC50 ([2]; Compounds 10-999): 6.00 to 7.00 | % of modification [3, 4]: A (percent of modification of PIK3CA protein ≥75%)

COCCOc1cc(F)ccc1-c1c(-c2ccc(=O)n(C(C)C)c2)nc(-c2ccc3c(c2)CCNC3)c2ccsc12 [compound 26]
pIC50 [1]: > 5.30

C=CC(=O)N1CC[C@H](n2cc(-c3nc(-c4ccc5c(c4)CCNC5)c4ccsc4c3-c3ccc(F)cc3OCCOC)c(C)n2)C1 [compound 59]
pIC50 [1]: > 5.30 | pIC50 ([2]; Compounds 10-999): > 7.00 | % of modification [3, 4]: A (percent of modification of PIK3CA protein ≥75%)

C=CC(=O)Nc1cccc(-c2nc(-c3ccc4c(c3)CCC(O)C4)c3ccsc3c2-c2ccc(F)cc2OCCOC)c1 (centres unmarked) [compound 57]
pIC50 [1]: < 4.60 | % of modification [3, 4]: B (50%<percent of modification <75%)

COCCOc1cc(F)ccc1-c1c(-c2cccc(CNC(=O)C3CCCC3)c2)nc(-c2ccc3c(c2)CCNC3)c2ccsc12 [compound 27]
pIC50 [1]: > 5.30

COCCOc1cc(F)ccc1-c1c(-c2nc(CO)cs2)nc(-c2ccc3c(c2)CCNC3)c2ccsc12 [compound 39]
pIC50 [1]: 4.60 to 5.30

COCCOc1ccccc1-c1c(-c2ccc(=O)n(C)c2)nc(-c2ccc3c(c2)CCNC3)c2c1CCC2 [compound 5]
pIC50 [1]: < 4.60

C=CC(=O)Nc1cccc(-c2nc(-c3cnn(C)c3)c3ccsc3c2-c2ccc(F)cc2OCCOC)c1 [compound 52]
pIC50 [1]: 4.60 to 5.30 | pIC50 ([2]; Compounds 10-999): 6.00 to 7.00 | % of modification [3, 4]: A (percent of modification of PIK3CA protein ≥75%)

COCCOc1ccccc1-c1c(-c2cccc(C#N)c2)nc(-c2ccc3c(c2)CCNC3)c2c1CCC2 [compound 2]
pIC50 [1]: < 4.60

COCCOc1cc(F)ccc1-c1c(-c2nc3ccc(C(C)C)cc3[nH]2)nc(-c2ccc3c(c2)CCNC3)c2ccsc12 [compound 20]
pIC50 [1]: < 4.60

COCCOc1ccccc1-c1c(-c2ccccc2)nc(-c2ccc3c(c2)CCNC3)c2ccsc12 [Compound 4, 7-[2-(2-methoxyethoxy)phenyl]-6-phenyl-4-(1,2,3,4-tetrahydroisoquinolin-6-yl)thieno[3,2-c]pyridine]
pIC50 [1]: 4.60 to 5.30

C=CC(=O)NCc1csc(-c2nc(-c3ccc4c(c3)CCNC4)c3ccsc3c2-c2ccc(F)cc2OCCOC)n1 [compound 38]
pIC50 [1]: 4.60 to 5.30 | % of modification [3, 4]: B (50%<percent of modification <75%)

COCCOc1cc(F)ccc1-c1c(-c2ccc3c(c2)CCN(C)C3)nc(-c2ccc3c(c2)CCNC3)c2ccsc12 [compound 229]
pIC50 [1]: > 5.30 | pIC50 ([2]; Compounds 10-999): < 5.52

COCCOc1cc(F)ccc1-c1c(-c2cnn(CC(=O)NC(C)(C)C)c2)nc(-c2ccc3c(c2)CCNC3)c2ccsc12 [compound 24]
pIC50 [1]: > 5.30

COCCOc1cc(F)ccc1-c1c(-c2cnn(C3CCN(C(=O)/C=C/CN(C)C)C3)c2)nc(-c2ccc3c(c2)CCNC3)c2ccsc12 (centres unmarked) [compound 56]
pIC50 [1]: 4.60 to 5.30 | % of modification [3, 4]: B (50%<percent of modification <75%)

COCCOc1cc(F)ccc1-c1c(-c2cnn(CCC(=O)NC(C)(C)C)c2)nc(-c2ccc3c(c2)CCNC3=O)c2ccsc12 [compound 37]
pIC50 [1]: 4.60 to 5.30

COCCOc1cc(F)ccc1-c1c(-c2cnn(CCNC(=O)C(C)C)c2)nc(-c2ccc3c(c2)CCNC3)c2ccsc12 [compound 21]
pIC50 [1]: 4.60 to 5.30

C=CC(=O)n1cnc(-c2nc(-c3ccc4c(c3)CCNC4)c3ccsc3c2-c2ccc(F)cc2OCCOC)c1 [compound 35]
pIC50 [1]: 4.60 to 5.30 | % of modification [3, 4]: D (percent of modification <25%)

COCCOc1cc(F)ccc1-c1c(-c2c[nH]cn2)nc(-c2ccc3c(c2)CCNC3)c2ccsc12 [compound 34]
pIC50 [1]: 4.60 to 5.30

COCCOc1ccccc1-c1c(-c2ccccc2)nc(-c2ccc3c(c2)CCNC3)c2c1CCC2 [compound 3]
pIC50 [1]: < 4.60

COCCOc1cc(F)ccc1-c1c(-c2cnn(CC(=O)N3CCCC3)c2)nc(-c2ccc3c(c2)CCNC3)c2ccsc12 [compound 25]
pIC50 [1]: 4.60 to 5.30

C=CC(=O)NCCn1cc(-c2nc(-c3ccc4c(c3)CCNC4)c3ccsc3c2-c2ccc(F)cc2OCCOC)cn1 [compound 22]
pIC50 [1]: 4.60 to 5.30 | % of modification [3, 4]: B (50%<percent of modification <75%)

C=CC(=O)N1CCc2nc(-c3nc(-c4ccc5c(c4)CCN(C)C5)c4ccsc4c3-c3c(F)cc(F)cc3OCCOC)sc2C1 (single isomer, unassigned) [Compound 450]
pIC50 ([2]; Compounds 10-999): > 7.00 | % of modification [3, 4]: A (percent of modification of PIK3CA protein ≥75%)

C=C(F)C(=O)N1CCn2nc(-c3nc(-c4ccc5c(c4)CCN(C)C5)c4ccsc4c3-c3ccc(F)cc3OC(C)C)cc2C1 [Compound 293]
pIC50 ([2]; Compounds 10-999): > 7.00 | % of modification [3, 4]: A (percent of modification of PIK3CA protein ≥75%)

C=CC(=O)N1CC(n2nc(-c3nc(-c4ccc5c(c4)CCNC5)c4ccsc4c3-c3ccc(F)cc3OCCOC)ccc2=O)C1 [Compound 204]
pIC50 ([2]; Compounds 10-999): 6.00 to 7.00 | % of modification [3, 4]: B (50%<percent of modification <75%)

C=CC(=O)N1CCc2ncc(-c3nc(-c4ccc5c(c4)CNC5=O)c4ccsc4c3-c3ccc(F)cc3OC(C)C)cc2C1 [Compound 316]
pIC50 ([2]; Compounds 10-999): > 7.00 | % of modification [3, 4]: A (percent of modification of PIK3CA protein ≥75%)

C=CC(=O)N1CCn2nc(-c3nc(-c4ccc(C5(F)CN(C)C5)cc4)c4ccsc4c3-c3c(F)cc(F)cc3OCCOC)cc2C1C (centres unmarked) [Compound 1044]
pIC50 ([2]; Compounds 1000-1279): > 7.00 | % of modification [3, 5]: A (percent of modification of PIK3CA protein ≥75%)

C=CC(=O)N1Cc2cc(-c3nc(-c4ccc5c(c4)CNC5=O)c4ccsc4c3-c3c(F)cc(F)cc3OC)nn2C(C)C1 (centres unmarked) [Compound 910]
pIC50 ([2]; Compounds 10-999): 6.00 to 7.00 | % of modification [3, 5]: B (50%<percent of modification <75%)

C=CC(=O)N1CCn2nc(-c3nc(-c4cc5cnn(C)c5cc4F)c4ccsc4c3-c3c(F)cc(F)cc3OCCO)cc2[C@H]1C [Compound 1162]
pIC50 ([2]; Compounds 1000-1279): > 7.00 | % of modification [3, 5]: A (percent of modification of PIK3CA protein ≥75%)

C=CC(=O)N1CC(n2cc(-c3nc(-c4cnn(CC(N)=O)c4)c4ccsc4c3-c3ccc(F)cc3OCCOC)cn2)C1 [Compound 239]
pIC50 ([2]; Compounds 10-999): > 7.00 | % of modification [3, 4]: A (percent of modification of PIK3CA protein ≥75%)

C=CC(=O)N1CC[C@H](n2cc(-c3nc(-c4cnn(C)c4)c4ccsc4c3-c3c(F)cc(F)cc3OCCOC)cn2)C1 [Compound 368]
pIC50 ([2]; Compounds 10-999): 6.00 to 7.00 | % of modification [3, 4]: A (percent of modification of PIK3CA protein ≥75%)
